Assays:
[1] = tested on: RF-48 (B-Cell Non-Hodgkin's Lymphoma); test: Bliss excess, mean over the matrix (fraction); higher = more synergy
Summary of the method: (§1)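 Bliss excess equals the observed combination effect minus the expected value EA + EB − EA·EB, where EA and EB are the effects of each agent alone. Combination Emax is the second-highest inhibition within the matrix. Inhibition was scaled from CellTiter-Glo 2.0 luminescence, with 0 set by vehicle wells and 1 by blank wells, after 72 hours of two-drug dosing of cells plated in 1536-well plates.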

[2] = tested on: NCI-H358 (Lung Adenocarcinoma); test: as above
Summary of the method: as §1

[3] = tested on: KYSE-450 (Esophageal Squamous Cell Carcinoma); test: as above
Summary of the method: as §1

[4] = tested on: NCI-H727 (Other Solid Carcinomas); test: as above
Summary of the method: as §1

[5] = tested on: SW13 (Other Solid Carcinomas); test: as above
Summary of the method: as §1

[6] = tested on: AMO-1 (Plasma Cell Myeloma); test: as above
Summary of the method: as §1

[7] = tested on: EFM-19 (Breast Carcinoma); test: as above
Summary of the method: as §1

[8] = tested on: EoL-1-cell (Acute Myeloid Leukemia); test: as above
Summary of the method: as §1

D-263MG (Glioblastoma) = test: as above
Summary of the method: as §1

[9] = tested on: PANC-04-03 (Pancreatic Carcinoma); test: as above
Summary of the method: as §1

[10] = tested on: KARPAS-299 (T-Cell Non-Hodgkin's Lymphoma); test: as above
Summary of the method: as §1

UACC-62 (Melanoma) [11] = test: as above
Summary of the method: as §1

[12] = tested on: MIA-PaCa-2 (Pancreatic Carcinoma); test: as above
Summary of the method: as §1

[13] = tested on: MLMA (Other Blood Carcinomas); test: as above
Summary of the method: as §1

[14] = tested on: Hs-766T (Pancreatic Carcinoma); test: as above
Summary of the method: as §1

[15] = tested on: NCI-H727 (Other Solid Carcinomas); test: combination Emax (second highest fraction inhibited in the dose matrix, 72 h); higher = more inhibition; extreme values may be limits of the assay
Summary of the method: as §1

[16] = tested on: EFM-19 (Breast Carcinoma); test: as above
Summary of the method: as §1

[17] = tested on: LU-65 (Non-Small Cell Lung Carcinoma); test: as above
Summary of the method: as §1

UACC-62 (Melanoma) [18] = test: as above
Summary of the method: as §1

[19] = tested on: Hs-766T (Pancreatic Carcinoma); test: as above
Summary of the method: as §1

| SMILES | Bliss excess [1] | Bliss excess [2] | Bliss excess [3] | Bliss excess [4] | Bliss excess [5] | Bliss excess [6] | Bliss excess [7] | Bliss excess [8] | Bliss excess (D-263MG (Glioblastoma)) | Bliss excess [9] | Bliss excess [10] | Bliss excess (UACC-62 (Melanoma) [11]) | Bliss excess [12] | Bliss excess [13] | Bliss excess [14] | combination Emax [15] | combination Emax [16] | combination Emax [17] | combination Emax (UACC-62 (Melanoma) [18]) | combination Emax [19] |
| --- | --- | --- | --- | --- | --- | --- | --- | --- | --- | --- | --- | --- | --- | --- | --- | --- | --- | --- | --- | --- |
| CN(CCO)CC[C@H](CSc1ccccc1)Nc1ccc(S(=O)(=O)NC(=O)c2ccc(N3CCC([C@@H](O)c4ccccc4-c4ccc(Cl)cc4)CC3)cc2)cc1S(=O)(=O)C(F)(F)F [AZD4320] + C1CN(CCC1(C(=O)N[C@@H](CCO)C2=CC=C(C=C2)Cl)N)C3=NC=NC4=C3C=CN4 [Capivasertib] (first compound max 1 µM, 7x7, partner max 3 µM) | -0.0097 | -0.0172 | -0.0449 | -0.0891 | -0.0326 | -0.0045 | -0.0292 | 0.0007 | -0.0512 | -0.0875 | -0.0024 | -0.0584 | -0.0476 | 0.0534 | -0.0492 | 0.484 | 0.87 | 0.612 | 0.341 | 0.204 |
| CN(CCO)CC[C@H](CSc1ccccc1)Nc1ccc(S(=O)(=O)NC(=O)c2ccc(N3CCC([C@@H](O)c4ccccc4-c4ccc(Cl)cc4)CC3)cc2)cc1S(=O)(=O)C(F)(F)F [AZD4320] + C=CCn1c(=O)c2cnc(Nc3ccc(N4CCN(C)CC4)cc3)nc2n1-c1cccc(C(C)(C)O)n1 [AZD1775] (first compound max 1 µM, partner max 1 µM) | 0.0896 | -0.0765 | -0.0535 | -0.0587 | -0.02 | 0.0119 | 0.0433 | -0.0146 | -0.0277 | -0.048 | 0.0477 | 0.025 | -0.0176 | 0.0379 | -0.0431 | 0.515 | 0.716 | 0.763 | 0.71 | 0.398 |
| CN(CCO)CC[C@H](CSc1ccccc1)Nc1ccc(S(=O)(=O)NC(=O)c2ccc(N3CCC([C@@H](O)c4ccccc4-c4ccc(Cl)cc4)CC3)cc2)cc1S(=O)(=O)C(F)(F)F [AZD4320] + CC(=O)O[C@H]1C(=O)[C@@]2(C)[C@H]([C@H](OC(=O)c3ccccc3)[C@]3(O)C[C@H](OC(=O)[C@H](O)[C@@H](NC(=O)c4ccccc4)c4ccccc4)C(C)=C1C3(C)C)[C@]1(OC(C)=O)CO[C@@H]1C[C@@H]2O [Paclitaxel] (first compound max 1 µM, 7x7, partner max 3 µM) | -0.0029 | 0.0117 | 0.0129 | 0.101 | – | 0.0173 | 0.0898 | -0.0057 | 0.102 | -0.0033 | -0.079 | 0.0953 | 0.0064 | 0.0254 | -0.0002 | 0.82 | 1 | 0.951 | 0.808 | 0.436 |
| CN(CCO)CC[C@H](CSc1ccccc1)Nc1ccc(S(=O)(=O)NC(=O)c2ccc(N3CCC([C@@H](O)c4ccccc4-c4ccc(Cl)cc4)CC3)cc2)cc1S(=O)(=O)C(F)(F)F [AZD4320] + CCN(CCO)CCCOc1ccc2c(Nc3cc(CC(=O)Nc4cccc(F)c4)[nH]n3)ncnc2c1 [AZD2811] (first compound max 1 µM, 7x7, partner max 1 µM) | 0.0643 | -0.0337 | -0.0273 | -0.0221 | -0.0152 | -0.0102 | 0.147 | -0.002 | 0.0665 | -0.0435 | 0.0104 | 0.0105 | 0.0532 | 0.0437 | -0.0485 | 0.512 | 0.932 | 0.432 | 0.201 | 0.171 |
| CN(CCO)CC[C@H](CSc1ccccc1)Nc1ccc(S(=O)(=O)NC(=O)c2ccc(N3CCC([C@@H](O)c4ccccc4-c4ccc(Cl)cc4)CC3)cc2)cc1S(=O)(=O)C(F)(F)F [AZD4320] + C[C@@H]1COCCN1C2=NC(=NC(=C2)C3(CC3)[S@](=N)(=O)C)C4=C5C=CNC5=NC=C4 [AZD6738] (first compound max 1 µM, 7x7, partner max 10 µM) | 0.0017 | -0.0195 | -0.0496 | -0.0735 | -0.0208 | – | -0.0511 | 0.0252 | -0.0424 | -0.0714 | -0.0153 | -0.0317 | -0.045 | 0.0229 | -0.108 | 0.695 | 0.716 | 0.781 | 0.7 | 0.6 |
| CN(CCO)CC[C@H](CSc1ccccc1)Nc1ccc(S(=O)(=O)NC(=O)c2ccc(N3CCC([C@@H](O)c4ccccc4-c4ccc(Cl)cc4)CC3)cc2)cc1S(=O)(=O)C(F)(F)F [AZD4320] + C[C@@H](Nc1cc(F)cc(F)c1)c1cc(C(=O)N(C)C)cc2c(=O)cc(N3CCOCC3)oc12 [AZD8186] (first compound max 1 µM, 7x7, partner max 3 µM) | 0.0072 | -0.0461 | -0.07 | 0.0309 | 0.0064 | 0.0318 | -0.0426 | 0.0255 | 0.0288 | 0.0202 | 0.044 | 0.102 | -0.0084 | 0.0859 | 0.0113 | 0.378 | 0.82 | 0.483 | 0.67 | 0.469 |
| CN(CCO)CC[C@H](CSc1ccccc1)Nc1ccc(S(=O)(=O)NC(=O)c2ccc(N3CCC([C@@H](O)c4ccccc4-c4ccc(Cl)cc4)CC3)cc2)cc1S(=O)(=O)C(F)(F)F [AZD4320] + Cc1cc2ncnn2cc1Nc1ncc2c(n1)n(C1CCOCC1)c(=O)n2C [AZD7648] (first compound max 1 µM, 7x7, partner max 10 µM) | -0.0205 | -0.0394 | -0.0383 | -0.0609 | -0.0371 | -0.0243 | -0.0326 | 0.0476 | -0.0192 | -0.0556 | -0.0343 | -0.0329 | -0.0636 | 0.0082 | -0.0842 | 0.198 | 0.735 | 0.494 | 0.248 | 0.405 |
| CN(CCO)CC[C@H](CSc1ccccc1)Nc1ccc(S(=O)(=O)NC(=O)c2ccc(N3CCC([C@@H](O)c4ccccc4-c4ccc(Cl)cc4)CC3)cc2)cc1S(=O)(=O)C(F)(F)F [AZD4320] + Cn1cnc2c(F)c(Nc3ccc(Br)cc3Cl)c(C(=O)NOCCO)cc21 [Selumetinib] (first compound max 1 µM, 7x7, partner max 3 µM) | -0.0317 | 0.0054 | 0.0177 | 0.0963 | 0.0166 | 0.0579 | -0.102 | 0.0593 | -0.0094 | 0.0708 | 0.0476 | -0.0035 | -0.0098 | 0.0436 | -0.013 | 0.973 | 0.753 | 0.753 | 0.868 | 0.57 |
| CN(CCO)CC[C@H](CSc1ccccc1)Nc1ccc(S(=O)(=O)NC(=O)c2ccc(N3CCC([C@@H](O)c4ccccc4-c4ccc(Cl)cc4)CC3)cc2)cc1S(=O)(=O)C(F)(F)F [AZD4320] + Nc1ccn([C@@H]2O[C@H](CO)[C@@H](O)C2(F)F)c(=O)n1 [Gemcitabine] (first compound max 1 µM, 7x7, partner max 0.3 µM) | -0.0365 | -0.0227 | -0.0497 | 0.0335 | -0.017 | -0.036 | 0.0067 | 0.0217 | -0.0625 | -0.0496 | 0.0251 | -0.006 | -0.025 | -0.0381 | -0.0777 | 0.634 | 0.702 | 0.492 | 0.72 | 0.311 |
| Cc1cc2ncnn2cc1Nc1ncc2c(n1)n(C1CCOCC1)c(=O)n2C [AZD7648] + C=CCn1c(=O)c2cnc(Nc3ccc(N4CCN(C)CC4)cc3)nc2n1-c1cccc(C(C)(C)O)n1 [AZD1775] (first compound max 10 µM, partner max 1 µM) | 0.0239 | -0.0156 | -0.03 | 0.024 | 0.0004 | -0.0422 | -0.0596 | 0.0137 | 0.0037 | 0.0135 | 0.0072 | 0.0242 | -0.0459 | -0.0665 | -0.0274 | 0.351 | 0.615 | 0.692 | 0.536 | 0.555 |
| Cc1cc2ncnn2cc1Nc1ncc2c(n1)n(C1CCOCC1)c(=O)n2C [AZD7648] + CCN(CCO)CCCOc1ccc2c(Nc3cc(CC(=O)Nc4cccc(F)c4)[nH]n3)ncnc2c1 [AZD2811] (first compound max 10 µM, 7x7, partner max 1 µM) | 0.0013 | -0.0718 | 0.0246 | -0.0003 | 0.0406 | 0.0431 | 0.116 | -0.0572 | 0.0415 | -0.0078 | 0.0493 | -0.0027 | 0.0108 | -0.0095 | -0.0197 | 0.287 | 0.536 | 0.37 | 0.312 | 0.422 |
| Cc1cc2ncnn2cc1Nc1ncc2c(n1)n(C1CCOCC1)c(=O)n2C [AZD7648] + CN(C)CCCOc1ccc(-c2ccc3ncc4c(c3c2)n(C2CCOCC2)c(=O)n4C)cn1 [AZD0156] (first compound max 10 µM, 7x7, partner max 1 µM) | -0.0144 | 0.0054 | 0.0038 | 0.0162 | 0.0107 | 0.0135 | -0.0815 | 0.0279 | 0.005 | 0.0016 | 0.0477 | 0.0247 | -0.003 | -0.0187 | -0.0324 | 0.294 | 0.403 | 0.334 | 0.302 | 0.525 |
